Assay results published in paper PMC9501633, “Synthesis, Characterisation and Mechanism of Action of Anticancer 3-Fluoroazetidin-2-ones” (Pharmaceuticals, 2022).
pIC50: −log10 of the molar value.

Columns and labels:
[1] = AlamarBlue cell viability assay, non-tumourigenic cells; format: cell-based, human; settings: human, HEK-293T cells (non-tumourigenic), 1 μM
Procedure: (§1) The cytotoxicity of the potent β-lactam 33 was investigated in the non-tumourigenic HEK-293T cell line (normal human embryonic kidney) at 72 h. […] For example, the cell viability of HEK cells at 1 μM was 88% in contrast to the cell viability of 36% for MCF-7 cells at 1 μM.
(§2) Cells were seeded at a density of 5 × 10^3 cells/well (MCF-7 and MDA-MB-231) and 1 × 10^4 cells/well (HEK-293T) in 96-well plates (200 μL per well). After 24 h, cells were then treated with medium alone, with vehicle (1% ethanol (v/v)) or with CA-4 or β-lactam compounds at 1 μM and 10 μM concentrations. […] Cell proliferation for MCF-7 cells was analysed with the AlamarBlue assay (Invitrogen Corp.) as previously described by us. […] Fluorescence results were obtained with a 96-well fluorimeter with excitation at 530 nm and emission at 590 nm with results recorded as percentage viability relative to vehicle control (100%). […]
(§3) Figure 4 Antiproliferative activity of 3-fluoro β-lactams on MCF-7, MDA-MB-231, Hs578T and Hs578T isogenic subclone Hs578T(i)8 breast cancer cells and non-tumourigenic HEK-293T cells. […] Cell viability was expressed as a percentage of vehicle control (ethanol 1% (v/v))-treated cells. […] Cell viability was expressed as a percentage of vehicle control (ethanol 1% (v/v))-treated cells and was measured by AlamarBlue assay (average of three independent experiments). […]

HEK-293T cells = experiment: as above; format: cell-based, human; settings: Homo sapiens, 72 h
Procedure: as §1, §2, §3

[2] = Stability under degradation conditions (HPLC); format: physicochemical
Procedure: The β-lactam ring is known to undergo hydrolysis/degradation depending on the substituent type on the ring. For example, degradation of monocyclic β-lactam antibiotic aztreonam increased with elevated humidity, temperature and acidic pH buffer. Ezetimibe, a monocyclic β-lactam drug used to reduce blood cholesterol, undergoes degradation and hydrolysis more rapidly in neutral and basic pH conditions than in acidic pH [71]. The stability of representative compounds 33 and 39 was also determined at pH 4, pH 7.4 (plasma) and pH 9 (intestine) by HPLC. […] The electron-withdrawing effect of the 3-fluoro substituent may result in decreasing stability of the β-lactam ring in response to acid hydrolysis.
The stability study for compounds 33 and 39 was performed using analytical HPLC (Symmetry column (C18, […], 4.6 × 150 mm), dual wavelength absorbance detector (Waters 2487), binary HPLC pump (Waters 1525) and autosampler (Waters 717 plus)) with mobile phase acetonitrile (70%)/water (30%), flow rate 1 mL/min over 15 min and detection at λ 254 nm. Stock solutions of compounds 33 and 39 (1 mg/mL in mobile phase) were used. Dilutions of 0.5 mg/mL, 0.25 mg/mL, 0.125 mg/mL, 0.0625 mg/mL, 0.03125 mg/mL, 0.015625 mg/mL and 0.0078 mg/mL were prepared for the calibration curve. (i) Stability of 33 and 39 in phosphate buffers: The phosphate buffers were prepared in accordance with the British Pharmacopoeia 2020 at pH values 4, 7.4 and 9. Stock solution, 300 µL (1 mg/mL ACN), was added to a vial containing buffer (9.7 mL), mixed and pre-heated to 37 °C. 1 mL of the solution was introduced into an HPLC vial. Samples (10 µL) were injected and analysed at time intervals of t = 0 min, 5 min, 30 min, 60 min and hourly for 24 h. The analysis was performed in triplicate. (ii) Thermal stability: Compounds 33 and 39 (1 mL stock solution) were each placed in a vial for 4 h at 60 °C on a heating block. The sample was then cooled, diluted with acetonitrile and analysed by HPLC. (iii) Photostability study: Compounds 33 and 39 (stock solution, 1 mL) were placed in a vial, exposed to UV light for 4 h and then analysed by HPLC. (iv) Stability in acidic conditions: HCl (0.1 M, 0.2 mL) was added to stock solutions (0.8 mL) of 33 and 39 in a vial. The vial was vortexed and retained at room temperature. A sample was neutralised with NaOH (0.1 M, 0.2 mL) each hour for 4 h and then analysed by HPLC. (v) Stability of 33 and 39 in basic (alkaline) conditions: NaOH (0.1 M, 0.2 mL) was added to stock solution (0.8 mL) in a vial. The vial was vortexed and retained at room temperature. A sample was neutralised with HCl (0.1 M, 0.2 mL) every hour for 4 h then analysed by HPLC. (vi) Stability of 33 and 39 in oxidising conditions: H2O2 (3%, 0.2 mL) was added to the stock solution (0.8 mL). The vial was vortexed to obtain a homogeneous mixture and retained at room temperature, and a sample was analysed by HPLC every hour for 4 h.

SMILES: COc1ccc(C2C(F)C(=O)N2c2cc(OC)c(OC)c(OC)c2)cc1F (stereo not shown) [Compound 33, 3-Fluoro-4-(3-fluoro-4-methoxyphenyl)-1-(3,4,5-trimethoxyphenyl)azetidin-2-one]
- viability at 72 h, 1 µM [1]: 88%
- pIC50 (HEK-293T cells): < 4.30
- remaining at 4 h, 0.8 mg/mL ([2]; 0.1 M HCl added to stock solution, acidic (0.1 M HCl)): 60%
- remaining at 4 h, 0.8 mg/mL ([2]; 0.1 M NaOH added to stock solution, alkaline (0.1M NaOH)): 65%
- remaining at 4 h, 0.8 mg/mL ([2]; 3% H2O2 added to stock solution, oxidative (3% H2O2)): 65%
- remaining at 4 h, 1 mg/mL ([2]; stock solution in acetonitrile/water under UV light, UV light): 88%
- remaining at 4 h, 1 mg/mL ([2]; stock solution in acetonitrile/water, heated, heat (60 °C)): 90%
